Here are results for twelve molecules from ChEMBL document CHEMBL1201862, “PubChem BioAssay data set” (2004).

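Following 48 hours of exposure in 96-well plates, responses at five concentrations were used to interpolate endpoints linearly. GI50 is the concentration that inhibits growth by half.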 Activity calls are given as the source filed them. No stated cut-off is given here; in the data, active = GI50 up to about 1.1 µM and inactive = higher.

Among the test systems are 786-0; RXF 393; SF-295; KM12; MDA-N; SN12C; MDA-MB-435; K562; BT-549; Hs-578T; TK-10; MOLT-4; NCI-H522; OVCAR-3; IGROV-1; CAKI-1; OVCAR-4; SK-MEL-2; A498.
Holding throughout (assay): growth of human tumour cells (NCI), 48 h

On to `Cc1cc(O)c(C(c2cccnc2)c2c(O)cc(C)[nH]c2=O)c(=O)[nH]1`, for which the GI50 in the assay with 786-0, in the assay on RXF 393, in the assay with SF-295, in the assay on KM12, in the assay with MDA-N and in the assay on SN12C was > 100 µM (inactive) each time. Besides, the GI50 with MDA-MB-435, with K562, with BT-549, with Hs-578T, in the assay on TK-10 and in the assay with MOLT-4 was > 100 µM (inactive) each time. The GI50 with NCI-H522, in the assay on OVCAR-3, in the assay with IGROV-1, in the assay with CAKI-1 and with OVCAR-4 was > 100 µM (inactive) each time.
Consider `N/C(CSCCSC/C(N)=N/O)=N\O`, for which the GI50 with 786-0, in the assay on RXF 393, in the assay with KM12, in the assay with MDA-N, in the assay with SN12C and with MDA-MB-435 was > 100 µM (inactive) throughout. Moreover, the GI50 with K562, with BT-549, in the assay on Hs-578T, with TK-10, with MOLT-4 and with NCI-H522 was > 100 µM (inactive) in each case. In addition, the GI50 with OVCAR-3, in the assay with IGROV-1, in the assay on CAKI-1 and with OVCAR-4 was > 100 µM (inactive) in each case.
Take `CC1(C)OC(CCC#N)CN1C(=O)OCc1ccccc1` (stereo not given): the GI50 in the assay on 786-0 was > 100 µM (inactive); with RXF 393 it was > 100 µM (inactive); in the assay on SF-295, > 100 µM (inactive); with KM12, 28.9 µM (inactive); in the assay on MDA-N it was > 100 µM (inactive); in the assay on SN12C, > 10 µM (inactive). Besides, the GI50 with SK-MEL-2 was > 100 µM (inactive); in the assay with MDA-MB-435, > 100 µM (inactive); with K562 it was > 100 µM (inactive); in the assay with BT-549 it was 20.7 µM (inactive); in the assay on TK-10 it was > 100 µM (inactive); in the assay with A498, > 100 µM (inactive). Moreover, the GI50 in the assay on MOLT-4 is > 100 µM (inactive); with NCI-H522, 75.2 µM (inactive); in the assay on OVCAR-3 it was > 100 µM (inactive); with IGROV-1, > 100 µM (inactive); with CAKI-1, > 100 µM (inactive); with OVCAR-4 it was > 100 µM (inactive).
As for `COc1ccc2c3c1OC1C4(CCC5C(C2)N(CC2CC2)CCC351)OCCO4` (stereo not given), the GI50 with 786-0, in the assay with RXF 393, in the assay with SF-295, with KM12, in the assay with MDA-N and with SN12C was > 100 µM (inactive) each time. For the same molecule, the GI50 with SK-MEL-2, in the assay on MDA-MB-435, with K562, in the assay on BT-549, in the assay with Hs-578T and with TK-10 was > 100 µM (inactive) throughout. The GI50 with MOLT-4, with NCI-H522, in the assay with OVCAR-3, in the assay on IGROV-1, in the assay on CAKI-1 and in the assay with OVCAR-4 was > 100 µM (inactive) each time.
As to `O=C1NC(=S)NC(=O)C1=C/C=C/c1ccc([N+](=O)[O-])cc1`, the GI50 with 786-0 is 14.2 µM (inactive); with RXF 393, 13.1 µM (inactive); with SF-295 it was 17.3 µM (inactive); in the assay on KM12, 38 µM (inactive); in the assay with MDA-N, 8.71 µM (inactive); in the assay on SN12C it was 15.8 µM (inactive). For the same molecule, the GI50 is 16.4 µM (inactive) in the assay on SK-MEL-2; 10.4 µM (inactive) in the assay on MDA-MB-435; 3.72 µM (inactive) in the assay on K562; 10.6 µM (inactive) in the assay with BT-549; 10.7 µM (inactive) in the assay with Hs-578T; 5.45 µM (inactive) with TK-10. Further, the GI50 with MOLT-4 was 3.04 µM (inactive); in the assay on OVCAR-3 it was 14.3 µM (inactive); with IGROV-1, 12.2 µM (inactive); with CAKI-1, 15.2 µM (inactive); in the assay with OVCAR-4, 19.8 µM (inactive).
Take `Cc1cc2nc3n(c2cc1C)C(c1c(F)cccc1F)SC3` (stereo not given): the GI50 in the assay on 786-0 is 19.3 µM (inactive); in the assay on RXF 393 it was 20.8 µM (inactive); in the assay with SF-295, 22.3 µM (inactive); in the assay on KM12 it was > 10 µM (inactive); in the assay with SN12C, 19.5 µM (inactive); in the assay with SK-MEL-2, 18.5 µM (inactive). In addition, the GI50 in the assay on MDA-MB-435 is 14.2 µM (inactive); in the assay on K562, 17.6 µM (inactive); with BT-549, 28.1 µM (inactive); in the assay with Hs-578T, 15.4 µM (inactive); in the assay with TK-10 it was 46.8 µM (inactive); in the assay with MOLT-4 it was 13.7 µM (inactive). The GI50 was 21.3 µM (inactive) with NCI-H522; 35.3 µM (inactive) with OVCAR-3; > 10 µM (inactive) in the assay with IGROV-1; 17.3 µM (inactive) in the assay with CAKI-1; 22.9 µM (inactive) with OVCAR-4.
With `O=C(CN1CCCCC1)Nc1ccc2c(c1)C1Oc3ccccc3CC1CO2` (stereo not given), the GI50 is 20.7 µM (inactive) with 786-0; 19.5 µM (inactive) in the assay on SF-295; 20.5 µM (inactive) in the assay on KM12; 19 µM (inactive) with MDA-N; 28.4 µM (inactive) in the assay with SN12C; 20.2 µM (inactive) in the assay with SK-MEL-2. The GI50 in the assay with MDA-MB-435 is 18.7 µM (inactive); in the assay with K562, 58.9 µM (inactive); in the assay on BT-549 it was 19.9 µM (inactive); in the assay with TK-10, 23.8 µM (inactive); with A498 it was 30.3 µM (inactive); in the assay on MOLT-4, 31.5 µM (inactive). The GI50 in the assay on NCI-H522 was 17.9 µM (inactive); in the assay on OVCAR-3, 27.8 µM (inactive); in the assay with IGROV-1, 21.1 µM (inactive); in the assay on CAKI-1, 35.9 µM (inactive).
Take `CN(C)CCNC(=O)c1ccc(NCCCN(C)CCCNc2ccc(C(=O)NCCN(C)C)c3nc4ccccc4c(O)c23)c2c(O)c3ccccc3nc12`: the GI50 with 786-0 is < 0.01 µM (active); in the assay on RXF 393 it was 0.146 µM (active); in the assay with SF-295, 0.0442 µM (active); in the assay on KM12 it was < 0.0116 µM (active); with SN12C, < 0.01 µM (active); in the assay with SK-MEL-2 it was < 0.0211 µM (active). The GI50 was 0.0101 µM (active) with MDA-MB-435; 0.0394 µM (active) with K562; 0.254 µM (active) with BT-549; 0.0223 µM (active) with Hs-578T; 0.16 µM (active) in the assay with TK-10; 0.13 µM (active) in the assay with A498. The GI50 was < 0.01 µM (active) in the assay on MOLT-4; < 0.01 µM (active) with NCI-H522; 0.0228 µM (active) in the assay with OVCAR-3; < 0.01 µM (active) in the assay with IGROV-1; 0.501 µM (active) in the assay with CAKI-1; < 0.0164 µM (active) in the assay on OVCAR-4.
As for `N#Cc1[nH]c(=S)[nH]c1N`, the GI50 in the assay on 786-0, with RXF 393, with SF-295, in the assay with SN12C, in the assay with SK-MEL-2 and in the assay on MDA-MB-435 was > 100 µM (inactive) each time. Moreover, the GI50 in the assay on K562 is > 100 µM (inactive); in the assay with BT-549, > 100 µM (inactive); with Hs-578T, 2.99 µM (inactive); with TK-10, > 100 µM (inactive); in the assay on A498, > 100 µM (inactive); with NCI-H522, > 100 µM (inactive). For the same molecule, the GI50 in the assay with OVCAR-3, with IGROV-1, in the assay with CAKI-1 and in the assay with OVCAR-4 was > 100 µM (inactive) in each case.
Take `CCOc1ccc(NCC2CC/C(=C\C=C\c3ccccc3)C2=O)cc1` (stereo not given): the GI50 is 5.25 µM (inactive) in the assay on 786-0; 16.1 µM (inactive) in the assay on RXF 393; 26.5 µM (inactive) in the assay with SF-295; 6.07 µM (inactive) with KM12; 16.6 µM (inactive) in the assay with SN12C; > 100 µM (inactive) in the assay with SK-MEL-2. Besides, the GI50 in the assay on MDA-MB-435 was 12.2 µM (inactive); in the assay on K562, 3.61 µM (inactive); in the assay with BT-549, 15.2 µM (inactive); with Hs-578T it was 29 µM (inactive); in the assay on TK-10, 19.9 µM (inactive); in the assay on A498, 28.6 µM (inactive). The GI50 in the assay with MOLT-4 was 5.2 µM (inactive); with NCI-H522, 8.61 µM (inactive); in the assay on OVCAR-3, 18 µM (inactive); in the assay with IGROV-1, 12.5 µM (inactive); with CAKI-1, 12.7 µM (inactive); in the assay with OVCAR-4, 27.5 µM (inactive).
Regarding `COc1ccc(C(=O)c2[nH]c(Nc3cc(C)ccn3)c(C(=S)Nc3ccccc3)c2N)cc1`, the GI50 in the assay with 786-0 was 21 µM (inactive); in the assay with RXF 393, 16.9 µM (inactive); in the assay with SF-295 it was 17.9 µM (inactive); with KM12, 13.3 µM (inactive); with MDA-N it was 15.3 µM (inactive); in the assay with SN12C, 18.2 µM (inactive). Further, the GI50 in the assay with SK-MEL-2 was 10.1 µM (inactive); in the assay with MDA-MB-435, 19.4 µM (inactive); in the assay on K562, 25.1 µM (inactive); with BT-549, 19.6 µM (inactive); with TK-10, 20 µM (inactive); with A498 it was 15.9 µM (inactive). Besides, the GI50 was 23.4 µM (inactive) with MOLT-4; 13.8 µM (inactive) with NCI-H522; 41.6 µM (inactive) with OVCAR-3; 12.2 µM (inactive) in the assay with IGROV-1; 36.6 µM (inactive) with CAKI-1; 10.9 µM (inactive) with OVCAR-4.
In the case of `O=C(O)Cc1cccc2c1OC(c1ccccc1)C(C(=O)c1ccccc1)C2=O` (stereo not given), the GI50 with 786-0 was 52.5 µM (inactive); in the assay on RXF 393, > 100 µM (inactive); with SF-295, 37.4 µM (inactive); in the assay with KM12, 25.6 µM (inactive); in the assay with MDA-N, 33.8 µM (inactive); in the assay with SN12C it was 45.8 µM (inactive). Also, the GI50 in the assay on MDA-MB-435 is 35 µM (inactive); with K562, 32.7 µM (inactive); with BT-549, > 100 µM (inactive); with Hs-578T, > 100 µM (inactive); in the assay with TK-10, 26.5 µM (inactive); in the assay with MOLT-4, 43.1 µM (inactive). Moreover, the GI50 was 43.2 µM (inactive) in the assay on NCI-H522, > 100 µM (inactive) with OVCAR-3, 38.7 µM (inactive) in the assay with IGROV-1 and 42.1 µM (inactive) in the assay on CAKI-1.
